Assay results as given in patent US8609692B2, “TRPV1 antagonists” (AbbVie Inc., priority 2008, dated 2013).

Key:
[1] = Rat telemetry protocol (core body temperature); assay type: in vivo; details: core body temperature of rats at one hour post dosing (100 μmol/kg, p.o.), relative to vehicle
Protocol: Male, Sprague Dawley rats, 225-250 grams were anesthetized with Sevoflurane (Abbott Laboratories). Rats were placed on a heating pad and covered with a sterile surgical drape. A ventral midline abdominal incision was made and sterile cotton tip applicators were used to gently move internal tissue and expose the abdominal aorta for implantation of the telemetry catheter (Data Sciences International; TL11M2-050-PXT). Blood flow was temporarily stopped to the lower extremities (5-7 min) with Diffenbach clamps to allow the insertion of the telemetry catheter into the abdominal aorta. Once inserted, a sterile cellulose patch was placed over the catheter/aorta and secured using a small amount of tissue adhesive (Vetbond, 3M). Once catheter placement was complete, the clamps were removed and blood flow was restored to the lower extremities. The transmitter was placed in the intraperitoneal cavity. The transmitter suture rib was sewn into the abdominal sutures to secure it in place. The skin was closed using sterile wound clips and the animal removed from Sevoflurane. Buprenex ([…] s.c.; Phoenix) was administered for post-operative analgesia. Animals were maintained on a heating pad until ambulatory, and then individually housed with food and water ad lib. Surgical staples were removed after 7-10 days post-implantation. Rats were allowed a 2-week post-surgical recovery period before treatment with test compound. Oral dosing (p.o.) was at time zero, with rats receiving a single dose of vehicle (10% EtOH, 20% Tween-80, 70% PEG-400) or a 100 μmol/kg dose of compound dissolved in vehicle. Temperature measurements were recorded every 15 minutes for the duration of the study (24 hours).
The term “core body temperature” as used herein, means the temperature measured in the intraperitoneal cavity.

[2] = molecular target: T1, human TRPV1 receptor (hTRPV1) (Homo sapiens, UniProt Q8NER1); assay: Capsaicin activation assay (Ca2+ influx, FLIPR); assay type: cell-based; details: 0.05 μM capsaicin, 1321N1 cells expressing hTRPV1
T1 construct: expressed in transfected cells
T1 sequence (Q8NER1 whole entry): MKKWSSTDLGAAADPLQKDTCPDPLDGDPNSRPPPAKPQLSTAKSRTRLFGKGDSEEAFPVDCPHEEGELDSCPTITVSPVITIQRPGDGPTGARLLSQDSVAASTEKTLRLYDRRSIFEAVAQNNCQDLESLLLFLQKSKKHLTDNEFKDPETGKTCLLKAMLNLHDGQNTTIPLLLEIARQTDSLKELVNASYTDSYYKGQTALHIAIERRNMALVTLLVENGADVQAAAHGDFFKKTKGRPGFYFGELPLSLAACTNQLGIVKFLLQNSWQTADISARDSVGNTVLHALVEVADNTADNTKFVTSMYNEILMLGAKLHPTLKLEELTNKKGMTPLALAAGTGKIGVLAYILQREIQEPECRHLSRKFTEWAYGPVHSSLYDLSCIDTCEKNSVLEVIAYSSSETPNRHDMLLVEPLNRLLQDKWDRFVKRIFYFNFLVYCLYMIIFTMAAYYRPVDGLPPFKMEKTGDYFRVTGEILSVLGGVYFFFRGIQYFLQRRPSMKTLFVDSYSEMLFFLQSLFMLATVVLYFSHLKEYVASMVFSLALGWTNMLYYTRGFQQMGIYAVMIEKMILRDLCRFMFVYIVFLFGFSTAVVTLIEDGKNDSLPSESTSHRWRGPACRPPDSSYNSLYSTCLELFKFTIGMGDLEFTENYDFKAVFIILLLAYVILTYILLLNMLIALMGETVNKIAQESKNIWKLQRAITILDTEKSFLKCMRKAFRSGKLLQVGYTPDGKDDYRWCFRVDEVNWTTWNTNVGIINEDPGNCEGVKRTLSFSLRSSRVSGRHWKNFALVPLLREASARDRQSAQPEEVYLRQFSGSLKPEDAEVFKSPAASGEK
Protocol: Dulbecco's modified Eagle medium (D-MEM) (with 4.5 mg/mL glucose) and fetal bovine serum were obtained from Hyclone Laboratories, Inc. (Logan, Utah). Dulbecco's phosphate-buffered saline (D-PBS) (with 1 mg/mL glucose and 3.6 mg/l Na pyruvate, without phenol red), L-glutamine, hygromycin B, and Lipofectamine® were obtained from Life Technologies (Grand Island, N.Y.). G418 sulfate was obtained from Calbiochem-Novabiochem Corp. (San Diego, Calif.). Capsaicin (8-methyl-N-vanillyl-6-nonenamide) was obtained from Sigma-Aldrich, Co. (St. Louis, Mo.). Fluo-4 AM (N-[4-[6-[(acetyloxy)methoxy]-2,7-difluoro-3-oxo-3H-xanthen-9-yl]-2-[2-[2-[bis[2-[(acetyloxy)methoxy]-2-oxyethyl]amino]-5-methyl-phenoxy]ethoxy]phenyl]-N-[2-[(acetyloxy)methoxy]-2-oxyethyl]-glycine, (acetyloxy)methyl ester) was purchased from Molecular Probes (Eugene, Oreg.).
The cDNAs for the human TRPV1 receptor (hTRPV1) were isolated by reverse transcriptase-polymerase chain reaction (RT-PCR) from human small intestine poly A+RNA supplied by Clontech (Palo Alto, Calif.) using primers designed surrounding the initiation and termination codons identical to the published sequences (Hayes et al. Pain 2000, 88, 205-215). The resulting cDNA PCR products were subcloned into pCIneo mammalian expression vector (Promega) and fully sequenced using fluorescent dye-terminator reagents (Prism, Perkin-Elmer Applied Biosystems Division) and a Perkin-Elmer Applied Biosystems Model 373 DNA sequencer or Model 310 genetic analyzer. Expression plasmids encoding the hTRPV1 cDNA were transfected individually into 1321N1 human astrocytoma cells using Lipofectamine®. Forty-eight hours after transfection, the neomycin-resistant cells were selected with growth medium containing 800 μg/mL Geneticin (Gibco BRL). Surviving individual colonies were isolated and screened for TRPV1 receptor activity. Cells expressing recombinant homomeric TRPV1 receptors were maintained at 37° C. in D-MEM containing 4 mM L-glutamine, 300 μg/mL G418 (Cal-biochem) and 10% fetal bovine serum under a humidified 5% CO2 atmosphere.
The functional activity of compounds at the TRPV1 receptor was determined with a Ca^2+ influx assay and measurement of intracellular Ca^2+ levels ([Ca^2+]i). All compounds were tested over an 11-point half-log concentration range. Compound solutions were prepared in D-PBS (4× final concentration), and diluted serially across 96-well v-bottom tissue culture plates using a Biomek 2000 robotic automation workstation (Beckman-Coulter, Inc., Fullerton, Calif.). A 0.2 μM solution of the TRPV1 agonist capsaicin was also prepared in D-PBS. The fluorescent Ca^2+ chelating dye Fluo-4 AM was used as an indicator of the relative levels of [Ca^2+]i in a 96-well format using a Fluorescence Imaging Plate Reader (FLIPR) (Molecular Devices, Sunnyvale, Calif.). Cells were grown to confluency in 96-well black-walled tissue culture plates. Then, prior to the assay, the cells were loaded with 100 μL per well of Fluo-4 AM (2 μM, in D-PBS) for 1-2 hours at 23° C. Washing of the cells was performed to remove extracellular Fluo-4 AM (2×1 mL D-PBS per well), and afterward, the cells were placed in the reading chamber of the FLIPR instrument. 50 μL of the compound solutions were added to the cells at the 10 second time mark of the experimental run. Then, after a 3-minute time delay, 50 μL of the capsaicin solution was added at the, 190 second time mark (0.05 μM final concentration)(final volume=200 μL) to challenge the TRPV1 receptor. Time length of the experimental run was 240 seconds. Fluorescence readings were made at 1 to 5 second intervals over the course of the experimental run. The peak increase in relative fluorescence units (minus baseline) was calculated from the 190 second time mark to the end of the experimental run, and expressed as a percentage of the 0.05 μM capsaicin (control) response. […]

Row | SMILES | Δ Temp [1] | IC50 [2]
1 | CCC1(CC)C[C@@H](NC(=O)Nc2cccc3c2cnn3C)c2cc(F)cc(F)c2O1 [Example 60, N-[(4R)-2,2-diethyl-6,8-difluoro-3,4-dihydro-2H-chromen-4-yl]-N′-(1-methyl-1H-indazol-4-yl)urea] | 0.7 °C | 22 nM
2 | O=C(Nc1cccc2[nH]ncc12)N[C@@H]1CCOc2c1cccc2C(F)(F)F [Example 63, N-1H-indazol-4-yl-N′-[(4R)-8-(trifluoromethyl)-3,4-dihydro-2H-chromen-4-yl]urea] | 1.0 °C | 10 nM
3 | CCC1(CC)C[C@@H](NC(=O)Nc2cccc3c2C[C@@H](O)CC3)c2ccc(F)cc2O1 [Example 71, N-[(4R)-2,2-diethyl-7-fluoro-3,4-dihydro-2H-chromen-4-yl]-N′-[(7S)-7-hydroxy-5,6,7,8-tetrahydronaphthalen-1-yl]urea] | 0.5 °C | 9 nM
4 | CCCC1(CCC)C[C@@H](NC(=O)Nc2cccc3c2C[C@H](O)CC3)c2cc(F)ccc2O1 [Example 72, N-[(4R)-6-fluoro-2,2-dipropyl-3,4-dihydro-2H-chromen-4-yl]-N′-[(7R)-7-hydroxy-5,6,7,8-tetrahydronaphthalen-1-yl]urea] | 0.7 °C | 7 nM
5 | CCC1(CC)C[C@@H](NC(=O)Nc2cccc3c2C[C@@H](O)CC3)c2cc(F)ccc2O1 [Example 73, N-[(4R)-2,2-diethyl-6-fluoro-3,4-dihydro-2H-chromen-4-yl]-N′-[(7S)-7-hydroxy-5,6,7,8-tetrahydronaphthalen-1-yl]urea] | 0.9 °C | 9 nM
6 | CCC1(CC)C[C@@H](NC(=O)Nc2cccc3c2C[C@H](O)CC3)c2ccc(F)cc2O1 [Example 74, N-[(4R)-2,2-diethyl-7-fluoro-3,4-dihydro-2H-chromen-4-yl]-N′-[(7R)-7-hydroxy-5,6,7,8-tetrahydronaphthalen-1-yl]urea] | 0.9 °C | 13 nM
7 | CCC1(CC)C[C@@H](NC(=O)Nc2cccc3c2C[C@H](O)CC3)c2ccc(Cl)cc2O1 [Example 75, N-[(4R)-7-chloro-2,2-diethyl-3,4-dihydro-2H-chromen-4-yl]-N′-[(7R)-7-hydroxy-5,6,7,8-tetrahydronaphthalen-1-yl]urea] | 1.0 °C | 10 nM
8 | CCC1(CC)C[C@@H](NC(=O)Nc2cccc3c2C[C@@H](O)CC3)c2ccc(Cl)cc2O1 [Example 76, N-[(4R)-7-chloro-2,2-diethyl-3,4-dihydro-2H-chromen-4-yl]-N′-[(7S)-7-hydroxy-5,6,7,8-tetrahydronaphthalen-1-yl]urea] | 1.3 °C | 9 nM
9 | CCC1(CC)C[C@@H](NC(=O)Nc2cccc3c2cnn3C)c2cccc(C(F)(F)F)c2O1 [Example 77, N-[(4R)-2,2-diethyl-8-(trifluoromethyl)-3,4-dihydro-2H-chromen-4-yl]-N′-(1-methyl-1H-indazol-4-yl)urea] | 1.0 °C | 37 nM
10 | CCC1(CC)C[C@@H](NC(=O)Nc2cccc3c2cnn3C)c2ccc(Cl)cc2O1 [Example 78, N-[(4R)-7-chloro-2,2-diethyl-3,4-dihydro-2H-chromen-4-yl]-N′-(1-methyl-1H-indazol-4-yl)urea] | 0.6 °C | 13 nM
11 | Cn1ncc2c(NC(=O)N[C@@H]3CCOc4c(OC(F)(F)F)cccc43)cccc21 [Example 79, N-(1-methyl-1H-indazol-4-yl)-N′-[(4R)-8-(trifluoromethoxy)-3,4-dihydro-2H-chromen-4-yl]urea] | 1.5 °C | 4 nM
12 | Cc1cc2c(NC(=O)N[C@@H]3CC(C)(C)Oc4cc(OC(F)(F)F)ccc43)cccc2cn1 [Example 80, N-[(4R)-2,2-dimethyl-7-(trifluoromethoxy)-3,4-dihydro-2H-chromen-4-yl]-N′-(3-methylisoquinolin-5-yl)urea] | 1.7 °C | 8 nM
13 | CCC1(CC)C[C@@H](NC(=O)Nc2cccc3ccncc23)c2ccc(F)cc2O1 [Example 82, N-[(4R)-2,2-diethyl-7-fluoro-3,4-dihydro-2H-chromen-4-yl]-N′-isoquinolin-8-ylurea] | 1.5 °C | 18 nM
14 | O=C(Nc1cccc2c1C[C@H](O)CC2)N[C@@H]1CC(CF)(CF)Oc2cc(F)ccc21 [Example 89, N-[(4R)-7-fluoro-2,2-bis(fluoromethyl)-3,4-dihydro-2H-chromen-4-yl]-N′-[(7R)-7-hydroxy-5,6,7,8-tetrahydronaphthalen-1-yl]urea] | 1.3 °C | 29 nM
15 | CC1(C)C[C@@H](NC(=O)Nc2cccc3cnc(N)cc23)c2ccc(C(F)(F)F)cc2O1 [Example 90, N-(3-aminoisoquinolin-5-yl)-N′-[(4R)-2,2-dimethyl-7-(trifluoromethyl)-3,4-dihydro-2H-chromen-4-yl]urea] | 1.0 °C | 17 nM
16 | Cn1ncc2c(NC(=O)N[C@@H]3CC(CF)(CF)Oc4cc(OC(F)(F)F)ccc43)cccc21 [Example 92, N-[(4R)-2,2-bis(fluoromethyl)-7-(trifluoromethoxy)-3,4-dihydro-2H-chromen-4-yl]-N′-(1-methyl-1H-indazol-4-yl)urea] | 0.8 °C | 21 nM
17 | O=C(Nc1cccc2ccncc12)N[C@@H]1CC(CF)(CF)Oc2cc(C(F)(F)F)ccc21 [Example 93, N-[(4R)-2,2-bis(fluoromethyl)-7-(trifluoromethyl)-3,4-dihydro-2H-chromen-4-yl]-N′-isoquinolin-8-ylurea] | 1.1 °C | 32 nM
18 | Cc1cc2c(NC(=O)N[C@@H]3CC(C)(C)Oc4c3ccc(C(F)(F)F)c4F)cccc2cn1 [Example 99, N-[(4R)-8-fluoro-2,2-dimethyl-7-(trifluoromethyl)-3,4-dihydro-2H-chromen-4-yl]-N′-(3-methylisoquinolin-5-yl)urea] | 0.8 °C | 7 nM
19 | CC1(C)C[C@@H](NC(=O)Nc2cccc3c2C[C@@H](O)CC3)c2ccc(Cl)cc2O1 [Example 103, N-[(4R)-7-chloro-2,2-dimethyl-3,4-dihydro-2H-chromen-4-yl]-N′-[(7S)-7-hydroxy-5,6,7,8-tetrahydronaphthalen-1-yl]urea] | 1.3 °C | 21 nM
20 | O=C(Nc1cccc2c1C[C@@H](O)CC2)N[C@@H]1CC(CF)(CF)Oc2cc(Cl)ccc21 [Example 104, N-[(4R)-7-chloro-2,2-bis(fluoromethyl)-3,4-dihydro-2H-chromen-4-yl]-N′-[(7S)-7-hydroxy-5,6,7,8-tetrahydronaphthalen-1-yl]urea] | 1.1 °C | 25 nM
